From US7144867B2, “Anticancer glycoside compounds” (priority 2004, dated 2006)

Legend:
Type in all cases: cell-based, human
p21 = assay: Western blotting, p21 in AsPC-1 cells; conditions: 4 μg/mL, time-dependent (FIG. 5)
Description: (§1) Western blotting. Cells were seeded into flasks and cultured to 50% to 60% confluence for 24 hours. Cells were then placed in serum-free medium with or without 4 μg/mL frondoside A for periods of 0, 24, 48 and 72 hours respectively. Proteins were extracted from attached and floating cells in lysis buffer containing 4% SDS. Protein concentrations were determined using the bicinchoninic acid assay with BSA as standard. Western blotting was carried out. In brief, equal amounts of protein in the cell lysates were separated on 15% SDS-PAGE and the proteins were transferred onto nitrocellulose membranes. After blocking non-specific sites with dried milk, membranes were incubated with the appropriate dilution of primary antibody. Membranes were then incubated with a horseradish peroxidase conjugated secondary antibody. Proteins were detected using an enhanced chemiluminescence detection system.

Mcl-1 = assay: Western blotting, Mcl-1 in AsPC-1 cells; conditions: 4 μg/mL, time-dependent (FIG. 4)
Description: as §1

AsPC-1 cells [1] = assay: 3H-methyl thymidine incorporation (cell proliferation assay)
Description: Cell culture. The poorly differentiated human pancreatic cancer line AsPC-1 was purchased from the American Type Culture Collection (ATCC, Manassas, Va., USA). Cells were cultured in MEM medium supplemented with penicillin G (100 U/mL), streptomycin (100 U/mL) and 10% FBS at 37° C. in humidified air with 5% CO2. Cells were harvested by incubation in trypsin-EDTA solution for 10–15 minutes. Cells were then centrifuged at 300×g for 5 minutes and cell pellets were suspended in fresh culture medium prior to seeding into culture flasks or plates.
Cell proliferation assay. Cell growth was analyzed by ^3H-methyl thymidine incorporation and cell counting. Following treatment of pancreatic cancer cells with a series of concentrations of frondoside A from 1 μg/mL to 16 μg/mL, cellular DNA synthesis was assayed by adding ^3H-methyl thymidine at 0.5 μLCi/well. After 2 hours incubation, the cells were washed twice with PBS, precipitated with 10% TCA for two hours, and solubilized from each well with 0.5 ml of 0.4 N NaOH. Incorporation of ^3H-methyl thymidine into DNA was measured by adding scintillation liquid and counting in a scintillation counter (LKB BackBeta, Wallac, Turku, Finland). For cell counting, cells were seeded in 12 wells plates and cultured with serum-free medium for 24 hours prior to frondoside A treatment and then switched to serum-free medium with or without 4 μg/mL frondoside A for the respective treatment time points (24, 48 and 72 hours). The cells were removed from the plate by trypsinization to produce a single cell suspension for cell counting. The cells were counted using Z1-Coulter Counter (Luton, UK).

caspase 7 = assay: Western blotting, caspase 7 in AsPC-1 cells; conditions: 4 μg/mL, time-dependent (FIG. 3)
Description: as §1

AsPC-1 cells [2] = assay: Morphological studies (apoptosis); conditions: 4 μg/mL, within 24 hours
Description: Morphological studies. The photomicrographs of cell morphological changes were taken with a Kodak DC 120 digital zoom camera under an inverted microscope (400×) following treatment with or without 4 μg/mL frondoside A for different time periods from 24 to 72 hours.

AsPC-1 cells [3] = assay: TUNEL assay; conditions: 4 μg/mL, 72 hours; control 2.4%, P<0.001
Description: Terminal deoxynucleotidyl transferase-mediated deoxyuridine triphosphate nick-end labeling (TUNEL) assay. The assay was carried out for terminal incorporation of fluorescein 12-dUTP by terminal deoxynucleotidyl transferase into fragmented DNA in cancer cells (TUNEL assay kits, Promega, Madison, Wis.). Cells were cultured to 50%–60% confluence in T75 flasks in serum-free conditions for 24 hours and then treated with or without 4 μg/mL Frondoside A for 72 hours. Cells were then trypsinized and fixed in 1% methanol-free formaldehyde-PBS for 15 minutes. At the end of treatment, cells were harvested with trypsin-EDTA solution to produce a single cell suspension. Cells were then pelleted by centrifugation and washed twice with PBS. Cell pellets were suspended in 0.5 ml PBS and fixed in ice-cold 70% ethanol at 4° C. Fixed cells were centrifuged at 300×g for 10 minutes and pellets were washed with PBS. After resuspension with 1 ml PBS, cells were incubated with 10 μL of RNase I (10 mg/mL) and 100 μL of propidium iodide (400 μg/mL; Sigma) and shaken for 1 hour at 37° C. in the dark. Samples were analyzed by flow cytometry. Laser flow cytometry was used to quantify the green fluorescence of fluorescein-12-dUTP incorporated against the red fluorescence of propidium iodide.

## COC1C(O)C(CO)OC(OC2C(O)COC(OC3C(C)OC(OC4C(OC5CCC6(C)C7CCC89C(=O)OC(C)(CCCC(C)C)C8C(OC(C)=O)CC9(C)C7=CCC6C5(C)C)OCC(OS(=O)(=O)[O-])C4O)C(OC4OCC(O)C(O)C4O)C3O)C2O)C1O.[Na+] [Frondoside A, 3-O-methyl-β-D-glucopyranosyl-(1→3)-β-D-xylopyranosyl-(1→4)-[β-D-xylopyranosyl-(1→2)]-β-D-quinovopyranosyl-(1→2)-4-O-sodium sulfate-β-D-xylopyranosyl-3-O-holost-7(8)-en-3β-ol-16β-O-acetate]
p21
  expression of P21: markedly increased
Mcl-1
  expression of Mcl-1: decreased expression
AsPC-1 cells [1]; 4 μg/mL, within 24 hours
  reduction of incorporation of 3H-methyl thymidine into DNA: approximately 50%
AsPC-1 cells [1]; AsPC-1 cells, 1 μg/mL to 16 μg/mL, concentration-dependent (FIG. 1)
  inhibition of thymidine incorporation: marked inhibition of thymidine incorporation
AsPC-1 cells [1]; immediate necrosis of cells
  concentrations causing cytotoxicity (cell necrosis): higher than 16 μg/mL
Caspase 7
  activation of caspase 7: reduction in the amounts of the respective procaspase forms
AsPC-1 cells [2]
  morphological changes: marked morphological changes characteristic of apoptosis
AsPC-1 cells [3]
  TUNEL staining: 36.1%
